Source: patent US20230346809A1, “USE OF CANNABIDIVARIN IN THE TREATMENT OF SEIZURES ASSOCIATED WITH RARE EPILEPSY SYNDROMES RELATED TO GENETIC ABNORMALITIES” (GW Research Limited, priority 2020, published 2023)
Entries after “also recorded” stand apart in the source; their conditions may differ.

Key:
[1] = tested on: seizures associated with Rett syndrome; test: Open label, phase I trial of CBDV in patients diagnosed with Rett syndrome (caregiver seizure diary); assay type: in vivo, human; parameters: Mean seizure frequency reduction: concentration or dose not given beside the values; conditions: for Mean seizure frequency reduction: versus baseline
Source text: Example 1 below describes the use of a botanically derived purified CBDV in an open label, phase I trial to investigate the clinical efficacy and safety of purified pharmaceutical cannabidivarin formulation (CBDV) in the treatment of patients diagnosed with Rett syndrome.
Subjects were required to be on one or more AEDs at stable doses for a minimum of 4 weeks prior to baseline. Subjects had to have been diagnosed with intractable epilepsy: failed adequate trial of two, or more, standard anticonvulsants, and four or more quantifiable seizures less than 8 weeks prior to screening, and two or more quantifiable seizures in prospective baseline phase.
Patients were administered botanically derived purified CBDV in a 50 mg/mL sesame oil-based solution which was titrated to an initial dose of 2.5 milligrams per kilogram per day (mg/kg/day). Doses were then increased to a goal of 10 mg/kg/day.
There were five patients in this study, and each received CBDV for various durations of time. Modifications were made to concomitant AEDs as per clinical indication.
Seizure frequency, intensity, and duration were recorded by caregivers in a diary during a baseline period of at least 28 days. Changes in seizure frequency relative to baseline were calculated after at least 2 weeks and at defined timepoints of treatment.
Patients may be defined as responders if they had more than 50% reduction in seizure frequency compared to baseline. The percent change of seizure frequency for the end of the treatment period was calculated as follows: […]

[2] = tested on: mouse model of Rett syndrome; conditions: cited from earlier work
[3] = tested on: pilocarpine-induced seizures; conditions: CBDV alone; Hill et al. 2012; cited from earlier work
[4] = tested on: methyl-6, 7-dimethoxy-4-ethyl-beta-carboline-3-carboxylate (DMCM) model; conditions: postnatal day 10 animals; cited from earlier work
[5] = tested on: maximal electroshock model; conditions: postnatal day 10 animals; cited from earlier work
[6] = tested on: MeCP2 KO mouse model of Rett Syndrome; conditions: WO 2017/178807; cited from earlier work
[7] = tested on: patients with Dravet and Lennox-Gastaut syndrome; conditions: purified pharmaceutical formulation of CBD; three trials; cited from earlier work
[8] = Patient 1, total over 14 months of CBDV, baseline 0
[9] = Patient 2, total over 11 months of CBDV, baseline 0
[10] = Patient 3, total over 12 months of CBDV, baseline 0
[11] = Patient 4, total over 12.5 months of CBDV, baseline 0
[12] = Patient 5, total over 11 months of CBDV, baseline 0

Structure (SMILES): C=C(C)[C@@H]1CCC(C)=C[C@H]1c1c(O)cc(CCC)cc1O [CBDV, cannabidivarin]
- Mean seizure frequency reduction ([1]; Patient 1, 14 months of CBDV): 52.5%
- Total seizure frequency ([1]; Patient 1, 14 months of CBDV, baseline 32.0/month): 15.2/month
- Focal seizures with impairment, Non-motor: seizure count [1, 8]: 2 /14 months
- Generalised seizures, Motor other: seizure count [1, 8]: 8 /14 months
- Generalised seizures, Motor tonic-clonic: seizure count [1, 8]: 0 /14 months
- Non-motor: seizure count [1, 8]: 0 /14 months
- Other: seizure count [1, 8]: 1 /14 months
- Unknown onset, Motor other: seizure count [1, 8]: 3 /14 months
- Unknown onset, Motor tonic-clonic: seizure count [1, 8]: 7 /14 months
- Focal seizures with impairment, Motor: seizure count ([1]; Patient 1, total over 14 months of CBDV, baseline 32): 192 /14 months
- Mean seizure frequency reduction ([1]; Patient 2, 11 months of CBDV): 79.4%
- Total seizure frequency ([1]; Patient 2, 11 months of CBDV, baseline 35.0/month): 7.2/month
- Focal seizures with impairment, Motor: seizure count [1, 9]: 0 /11 months
- Generalised seizures, Motor other: seizure count [1, 9]: 0 /11 months
- Generalised seizures, Motor tonic-clonic: seizure count [1, 9]: 0 /11 months
- Non-motor: seizure count [1, 9]: 0 /11 months
- Unknown onset, Motor other: seizure count [1, 9]: 0 /11 months
- Unknown onset, Motor tonic-clonic: seizure count [1, 9]: 0 /11 months
- Other: seizure count ([1]; Patient 2, total over 11 months of CBDV, baseline 3): 18 /11 months
- Focal seizures with impairment, Non-motor: seizure count ([1]; Patient 2, total over 11 months of CBDV, baseline 32): 61 /11 months
- Mean seizure frequency reduction ([1]; Patient 3, 12 months of CBDV): 90.0%
- Total seizure frequency ([1]; Patient 3, 12 months of CBDV, baseline 6.0/month): 0.6/month
- Focal seizures with impairment, Non-motor: seizure count [1, 10]: 0 /12 months
- Generalised seizures, Motor other: seizure count [1, 10]: 0 /12 months
- Non-motor: seizure count [1, 10]: 0 /12 months
- Other: seizure count [1, 10]: 0 /12 months
- Unknown onset, Motor other: seizure count [1, 10]: 0 /12 months
- Unknown onset, Motor tonic-clonic: seizure count [1, 10]: 0 /12 months
- Focal seizures with impairment, Motor: seizure count ([1]; Patient 3, total over 12 months of CBDV, baseline 1): 3 /12 months
- Generalised seizures, Motor tonic-clonic: seizure count ([1]; Patient 3, total over 12 months of CBDV, baseline 5): 4 /12 months
- Mean seizure frequency reduction ([1]; Patient 4, 12.5 months of CBDV): 5.7%
- Total seizure frequency ([1]; Patient 4, 12.5 months of CBDV, baseline 7.0/month): 6.6/month
- Focal seizures with impairment, Non-motor: seizure count [1, 11]: 0 /12.5 months
- Generalised seizures, Motor tonic-clonic: seizure count [1, 11]: 0 /12.5 months
- Non-motor: seizure count [1, 11]: 0 /12.5 months
- Other: seizure count [1, 11]: 6 /12.5 months
- Unknown onset, Motor other: seizure count [1, 11]: 0 /12.5 months
- Unknown onset, Motor tonic-clonic: seizure count [1, 11]: 0 /12.5 months
- Focal seizures with impairment, Motor: seizure count ([1]; Patient 4, total over 12.5 months of CBDV, baseline 3): 73 /12.5 months
- Generalised seizures, Motor other: seizure count ([1]; Patient 4, total over 12.5 months of CBDV, baseline 4): 4 /12.5 months
- Mean seizure frequency reduction ([1]; Patient 5, 11 months of CBDV): 98.1%
- Total seizure frequency ([1]; Patient 5, 11 months of CBDV, baseline 371.0/month): 7.2/month
- Focal seizures with impairment, Motor: seizure count [1, 12]: 0 /11 months
- Focal seizures with impairment, Non-motor: seizure count [1, 12]: 0 /11 months
- Non-motor: seizure count [1, 12]: 6 /11 months
- Other: seizure count [1, 12]: 0 /11 months
- Unknown onset, Motor tonic-clonic: seizure count [1, 12]: 0 /11 months
- Generalised seizures, Motor other: seizure count ([1]; Patient 5, total over 11 months of CBDV, baseline 18): 18 /11 months
- Generalised seizures, Motor tonic-clonic: seizure count ([1]; Patient 5, total over 11 months of CBDV, baseline 25): 38 /11 months
- Unknown onset, Motor other: seizure count ([1]; Patient 5, total over 11 months of CBDV, baseline 328): 17 /11 months
- Decrease of seizure frequency rates, maximum ([1]; across listed seizure types): up to 98%
- Reduction in seizures over the period of treatment, range over patients ([1]; all five patients, 11-14 months of CBDV): 5.7-98.1%
- Patients with more than 50% reduction in seizure frequency compared to baseline (responders) ([1]; five patients): four of the five patients
- Patients with more than 75% reduction in seizure frequency compared to baseline ([1]; five patients): three
- Effect on number of seizures associated with Rett syndrome ([1]; five patients, open label): significantly reduce the number of seizures
- Effect on frequency of seizure types ([1]; focal motor/non-motor with impairment, generalised motor/non-motor, unknown onset motor, non-motor and other types): effective in reducing the frequency of all seizure types; also recorded: significant reduction in specific seizure types
- Patients with focal seizures with impairment who experienced a reduction in their seizures ([1]; four patients (patient 1-4) suffered from focal seizures with impairment): three (patients 1-3) of these patients experienced a reduction
- Patients with generalised seizures who experienced a reduction in these seizures ([1]; three patients (patients 3-5) suffered from generalised seizures): all three experienced a reduction
- Behavioural alterations ([2]; reference 2): rescue the behavioural alterations
- Memory deficits ([2]; reference 3): rescued memory deficits
- Neurological and motor defects ([2]; reference 3): delayed the appearance of neurological and motor defects
- Effect on pilocarpine-induced seizures [3]: did not have any effect
- Seizure suppression [4]: did not suppress seizures
- Seizure suppression [5]: did not suppress seizures
- Bodyweight and survival [6]: reduce the decrease in bodyweight and survival
- General condition and symptoms of mobility and breathing [6]: improved general condition and symptoms of mobility and breathing

Structure (SMILES): C=C(C)[C@@H]1CCC(C)=C[C@H]1c1c(O)cc(CCCCC)cc1O [CBD, Cannabidiol]
- Efficacy in randomized control trials [7]: showed efficacy
